Source: ChEMBL document CHEMBL5725801, “Fused heterocyclic compounds as CaM kinase inhibitors” (2018)
pEC50: −log10 of the molar value.

assay: CaMKII Cell-Based Activity: CaMKII activity in neonatal rat ventricular myocytes (NRVM) was measured by monitoring the phosphorylation level of phospholamban using high-content imaging. NRVMs were plated in a clear bottom 384-well plate in medium supplemented with 10% fetal bovine serum (FBS) and incubated at 37° C., 5% CO2 overnight. The medium was changed to a serum-free medium and compounds were dosed to the cells. The cells were incubated at 37° C., 5% CO2 for 4 hours and were then treated with 100 nM ATX-II (Alomone Labs) to activate CaMKII. 10 minutes after the addition of ATX-II, the cells were fixed with 4% formaldehyde followed by permeabilization with 0.1% triton X100. The fixed cells were stained with an anti-phospho-phospholamban primary antibody (Santa Cruz Biotechnology) and an Alexa488-labeled anti-rabbit IgG secondary antibody (Life Technologies Corporation) as well as Hoechst 33342 (Life Technologies Corporation). The cells were imaged using an ArrayScan VTI (Cellomics) and analyzed for cells containing a positive fluorescent signal at 485 nm, reported as % responder. The % responders were plotted against the compound concentration to determine the compounds EC50.

Row | Compound | pEC50
1 | CCc1cc(C(=O)NC[C@H](C)N(CC)CC)cc(-c2cnn3ccc(-c4cccs4)nc23)n1 | 7.22
2 | COc1cc(C(=O)N2CCCC[C@H]2CN)cc(-c2cnn3ccc(-c4ccccc4)nc23)n1 | 6.54
3 | O=C(c1ccnc(-c2cnn3ccc(-c4ccccc4)nc23)c1)N1CCC2CCNCC21 (stereo not drawn) | 7.18
4 | COc1cc(C(=O)N2CCCC[C@@H]2CN)cc(-c2cnn3ccc(-c4ccccc4)nc23)n1 | 6.50
5 | CCN(CC)[C@@H](C)CNC(=O)c1cc(NCC2(N3CCCC3)COC2)nc(-c2cnn3ccc(-c4cccs4)nc23)c1 | 6.63
6 | Cc1cc(C(=O)N2CCC[C@@H]2CN)cc(-c2cnn3ccc(-c4ccccc4)nc23)n1 | 6.68
7 | CCN(CC)[C@@H](C)CNC(=O)c1cc(-c2cnn3ccc(-c4cccs4)nc23)nc(N2CCC(O)C(F)(F)C2)c1 (stereo partly drawn) | 7.18
8 | CCN(CC)[C@@H](C)CNC(=O)c1cc(Cl)nc(-c2cnn3ccc(-c4cccs4)nc23)c1 | 7.16
9 | CN(C)c1cc(C(=O)N2CCCC[C@H]2CN)cc(-c2cnn3ccc(-c4ccccc4)nc23)n1 | 6.38
10 | O=C(c1ccnc(-c2cnn3ccc(-c4cccs4)nc23)c1)N1C2CCNCC1CC2 (stereo not drawn) | 6.73
11 | Cc1cnc(-c2cnn3ccc(-c4ccccc4)nc23)cc1C(=O)N1CCCC[C@@H]1[C@@H](C)N | 7.18
12 | NC[C@H]1CC(F)(F)CN1C(=O)c1ccnc(-c2cnn3ccc(-c4cccs4)nc23)c1 | 6.50
13 | O=C(c1ccnc(-c2cnn3ccc(-c4cccs4)nc23)c1)N1CCC[C@@H]2CCNC[C@@H]21 | 7.09
14 | CCN[C@@H](C)CNC(=O)c1cc(CC)nc(-c2cnn3ccc(-c4ccccc4)nc23)c1 | 6.77
15 | NC[C@@H]1CCCCN1C(=O)c1cc(Cl)nc(-c2cnn3ccc(-c4ccccc4)nc23)c1 | 6.67
16 | NC[C@@H]1CCCCN1C(=O)c1cc(Cl)nc(-c2cnn3ccc(-c4cccs4)nc23)c1 | 6.61
17 | Nc1cc(C(=O)N2C3CCNCC2CC3)cc(-c2cnn3ccc(-c4ccccc4)nc23)n1 (stereo not drawn) | 6.22
18 | N[C@H]1CCCN(C(=O)c2ccnc(-c3cnn4ccc(-c5cccs5)nc34)c2)C1 | 6.66
19 | CCN(CC)[C@@H](C)CNC(=O)c1cc(-c2cnn3ccc(-c4cccs4)nc23)nc(C(C)C)c1 | 7.09
20 | C[C@H](N)CNC(=O)c1cc(-c2cnn3ccc(-c4cccs4)nc23)nc(N2CC(O)C2)c1 | 5.61
21 | NC[C@H]1CCCCN1C(=O)c1cc(-c2cnn3ccc(-c4ccccc4)nc23)nc(C(F)(F)F)c1 | 7.19

Row | Compound | pEC50
22 | O=C(c1ccnc(-c2cnn3ccc(-c4ccccc4)nc23)c1)N1C2CCCC1CNCC2 (stereo not drawn) | 7.29
23 | CCN(CC)[C@@H](C)CNC(=O)c1cc(-c2cnn3ccc(-c4cccs4)nc23)nc(N2CC(C)(C)C2)c1 | 7.03
24 | Nc1cc(C(=O)N2C3CCNCC2CC3)cc(-c2cnn3ccc(-c4cccs4)nc23)n1 (stereo not drawn) | 6.95
25 | O=C(c1ccnc(-c2cnn3ccc(-c4cccs4)nc23)c1)N1CC2CCC[C@@H](C1)NC2 | 7.27
26 | CN(C)c1cc(C(=O)N2CC[C@H](N)C2)cc(-c2cnn3ccc(-c4ccccc4)nc23)n1 | 6.08
27 | N[C@H]1CCN(C(=O)c2ccnc(-c3cnn4ccc(-c5cccs5)nc34)c2)C1 | 6.76
28 | C[C@@H]1CNCCN1C(=O)c1ccnc(-c2cnn3ccc(-c4cccs4)nc23)c1 | 6.68
29 | N[C@@H]1CCC[C@H]2CCCN(C(=O)c3ccnc(-c4cnn5ccc(-c6ccccc6)nc45)c3)[C@H]21 | 7.14
30 | COc1cc(C(=O)N2CC[C@H](N)C2)cc(-c2cnn3ccc(-c4cccs4)nc23)n1 | 6.84
31 | CCN[C@@H](C)CNC(=O)c1cc(N)nc(-c2cnn3ccc(-c4ccccc4)nc23)c1 | 6.95
32 | COC1CN(c2cc(C(=O)NCC34CCCN3CCC4)cc(-c3cnn4ccc(-c5ccccc5)nc34)n2)C1 | 7.16
33 | N[C@H]1C[C@@H]2CCC[C@H]1N2C(=O)c1ccnc(-c2cnn3ccc(-c4ccccc4)nc23)c1 | 7.13
34 | O=C(c1ccnc(-c2cnn3ccc(-c4cccs4)nc23)c1)N1CC2CNC(COC2)C1 (stereo not drawn) | 6.59
35 | CCN[C@@H](C)CNC(=O)c1cc(C)nc(-c2cnn3ccc(-c4ccccc4)nc23)c1 | 6.55
36 | CCN(CC)[C@@H](C)CNC(=O)c1cc(-c2cnn3ccc(-c4cccs4)nc23)nc(C(F)(F)F)c1 | 6.99
37 | N[C@H]1CCN(C(=O)c2ccnc(-c3cnn4ccc(-c5ccccc5)nc34)c2)C1 | 6.70
38 | COc1cc(C(=O)N2CC[C@H](N)C2)cc(-c2cnn3ccc(-c4ccccc4)nc23)n1 | 6.33
39 | CN(C)c1cc(C(=O)N2CC[C@H](N)C2)cc(-c2cnn3ccc(-c4cccs4)nc23)n1 | 6.67
40 | CCN(CC)[C@@H](C)CNC(=O)c1cc(-c2cnn3ccc(-c4cccs4)nc23)nc(N2CCn3ccnc3C2)c1 | 6.92
41 | CCN(CC)[C@@H](C)CNC(=O)c1cc(-c2cnn3ccc(-c4cncnc4)nc23)nc(N2CC(OC)C2)c1 | 6.28

The remaining lines, values ahead:

Row | pEC50 | Compound
42 | 7.33 | CCN(CC)[C@@H](C)CNC(=O)c1cc(-c2cnn3ccc(-c4cccs4)nc23)nc(N2CCC(O)CC2)c1
43 | 7.75 | CCN(CC)[C@@H](C)CNC(=O)c1cc(-c2cnn3ccc(-c4cccs4)nc23)nc(N2CC(O)C2)c1
44 | 7.39 | CCN(CC)[C@@H](C)CNC(=O)c1cc(-c2cnn3ccc(-c4cccs4)nc23)nc(N(C)C)c1
45 | 7.86 | CCN(CC)[C@@H](C)CNC(=O)c1cc(-c2cnn3ccc(-c4cccs4)nc23)nc(N2CC(OC)C2)c1
46 | 7.86 | CCN[C@@H](C)CNC(=O)c1cc(Cl)nc(-c2cnn3ccc(-c4ccccc4)nc23)c1
47 | 7.23 | NC[C@H]1CCCN1C(=O)c1ccnc(-c2cnn3ccc(-c4cccs4)nc23)c1
48 | 7.50 | CCN(CC)[C@@H](C)CNC(=O)c1cc(NCCN(C)C)nc(-c2cnn3ccc(-c4ccccc4)nc23)c1
49 | 7.30 | CCN(CC)[C@@H](C)CNC(=O)c1cc(-c2cnn3ccc(-c4cccs4)nc23)nc(N2CC(S(=O)(=O)NC)C2)c1
50 | 7.34 | CCN(CC)[C@@H](C)CNC(=O)c1cc(-c2cnn3ccc(-c4cccs4)nc23)nc(N2CCC(C)(O)CC2)c1
51 | 7.29 | CCN(CC)[C@@H](C)CNC(=O)c1cc(-c2cnn3ccc(-c4cccs4)nc23)nc(N2CC(S(=O)(=O)NC3CC3)C2)c1
52 | 7.60 | CCN(CC)[C@@H](C)CNC(=O)c1cc(N)nc(-c2cnn3ccc(-c4ccccc4)nc23)c1
53 | 7.83 | CCN(CC)[C@@H](C)CNC(=O)c1cc(-c2cnn3ccc(-c4ccsc4)nc23)nc(N2CC(OC)C2)c1
54 | 7.27 | CN(C)c1cc(C(=O)N2CCCC[C@@H]2CN)cc(-c2cnn3ccc(-c4ccccc4)nc23)n1
55 | 7.53 | NC[C@H]1CCCCN1C(=O)c1cc(-c2cnn3ccc(-c4ccccc4)nc23)nc(C2CC2)c1
56 | 7.82 | CCN[C@@H](C)CNC(=O)c1cc(-c2cnn3ccc(-c4ccccc4)nc23)nc(C2CC2)c1
57 | 7.48 | Cc1cnc(-c2cnn3ccc(-c4ccccc4)nc23)cc1C(=O)N1CCCC[C@@H]1CN
58 | 7.77 | CCN(CC)[C@@H](C)CNC(=O)c1cc(-c2cnn3ccc(-c4ccccc4)nc23)nc(N2CC(OC)C2)c1
59 | 7.40 | CCN(CC)[C@@H](C)CNC(=O)c1cc(-c2cnn3ccc(-c4cccs4)nc23)nc(N2CCC2)c1
60 | 7.63 | NC[C@H]1CCCCN1C(=O)c1cc(Cl)nc(-c2cnn3ccc(-c4cccs4)nc23)c1
61 | 7.63 | NC[C@H]1CCCCN1C(=O)c1cc(-c2cnn3ccc(-c4ccccc4)nc23)ncc1N
62 | 8.17 | O=C(c1ccnc(-c2cnn3ccc(-c4ccccc4)nc23)c1)N1CCCC[C@@H]1[C@@H]1CCCN1

Row | pEC50 | Compound
63 | 7.69 | CCN(CC)[C@@H](C)CNC(=O)c1cc(-c2cnn3ccc(-c4cccs4)nc23)nc(N2CC(F)C2)c1
64 | 7.31 | O=C(c1ccnc(-c2cnn3ccc(-c4ccccc4)nc23)c1)N1CCC2CNCC21 (stereo not drawn)
65 | 7.33 | CC(C)(C)c1cc(C(=O)N2CCCC[C@@H]2CN)cc(-c2cnn3ccc(-c4ccccc4)nc23)n1
66 | 8.09 | O=C(c1ccnc(-c2cnn3ccc(-c4ccccc4)nc23)c1)N1CCCC12CCCNC2 (stereo not drawn)
67 | 7.71 | CCN[C@@H](C)CNC(=O)c1cc(-c2cnn3ccc(-c4ccccc4)nc23)nc(C(C)C)c1
68 | 7.50 | CCN(CC)[C@@H](C)CNC(=O)c1cc(-c2cnn3ccc(-c4cccs4)nc23)nc(N2CC(S(C)(=O)=O)C2)c1
69 | 7.28 | Cc1cc(C(=O)N2CCCC[C@@H]2CN)cc(-c2cnn3ccc(-c4ccccc4)nc23)n1
70 | 8.04 | CCN(CC)[C@@H](C)CNC(=O)c1cc(-c2cnn3ccc(-c4cccs4)nc23)nc(N2CC(C#N)C2)c1
71 | 7.45 | NC[C@H]1CCCCN1C(=O)c1cc(-c2cnn3ccc(-c4ccccc4)nc23)ncc1Cl
72 | 7.98 | CCN(CC)[C@@H](C)CNC(=O)c1cc(N)nc(-c2cnn3ccc(-c4cccs4)nc23)c1
73 | 7.23 | CCN(CC)[C@@H](C)CNC(=O)c1cc(NCCN(C)C)nc(-c2cnn3ccc(-c4cccs4)nc23)c1
74 | 7.34 | C[C@H](N)[C@@H]1CCCCN1C(=O)c1ccnc(-c2cnn3ccc(-c4ccccc4)nc23)c1
75 | 7.31 | CN(C)c1cc(C(=O)N2CCCC[C@@H]2CN)cc(-c2cnn3ccc(-c4cccs4)nc23)n1
76 | 7.55 | CCN(CC)[C@@H](C)CNC(=O)c1cc(-c2cnn3ccc(-c4cccs4)nc23)nc(N2CC(NS(=O)(=O)C3CC3)C2)c1
77 | 7.26 | CCN(CC)[C@@H](C)CNC(=O)c1cc(-c2cnn3ccc(-c4cccs4)nc23)nc(N2CC(C(F)(F)F)C2)c1
78 | 7.66 | CNc1cnc(-c2cnn3ccc(-c4ccccc4)nc23)cc1C(=O)N1CCCC[C@@H]1CN
79 | 7.76 | CCN(CC)[C@@H](C)CNC(=O)c1cc(-c2cnn3ccc(-c4cccs4)nc23)nc(N2CC(F)(F)C2)c1
80 | 7.47 | NC[C@H]1CCCCN1C(=O)c1cc(Cl)nc(-c2cnn3ccc(-c4ccccc4)nc23)c1
81 | 7.70 | CCN(CC)[C@@H](C)CNC(=O)c1cc(-c2cnn3ccc(-c4cccs4)nc23)nc(N2CC(OC(F)F)C2)c1
82 | 7.95 | CCN(CC)[C@@H](C)CNC(=O)c1cc(-c2cnn3ccc(-c4cccs4)nc23)nc(N2CCCS2(=O)=O)c1
83 | 8.02 | CCOC1CN(c2cc(C(=O)NC[C@H](C)N(CC)CC)cc(-c3cnn4ccc(-c5cccs5)nc34)n2)C1
